The structures appear in SMILES notation. Like-named read-outs stand apart in the source and are kept apart here.

In one test the test system is P. aeruginosa cultures. Particulars: cited from earlier work.
In test [1] the test system is P. aeruginosa strain PA14. Format: cell-based, Pseudomonas aeruginosa. Particulars: for time to appearance of a pyocyanin signal: M63 minimal media, versus no added amino acid (nearly 24 hours); for effect on pyocyanin production: M63 minimal media or TSB, single amino acid added (tyrosine 3.2 mM, valine 17.6 mM); for up-regulatory effect on pyocyanin production compared with the other amino acids tested: six amino acids tested, M63 minimal media and TSB, scans over 24 hours. Here is the method: All bacterial tests were completed using wild-type P. aeruginosa strain PA14. Cell cultures were routinely grown in trypticase soy broth (TSB) (BD Biosciences 211768) at 37° C. and later stored on TSB agar plates at 4° C. when not in use. All amino acids were purchased from Sigma-Aldrich (St. Louis, Mo.) and dissolved in solution using either TSB or M63 minimal salts medium (Fisher Cat. 50-751-6740) [(NH4)2SO4 (15 mM), KH2PO4 (100 mM)] supplemented with MgSO4 (1 mM) and glycerol (0.027 mM). Electrochemical measurements were performed using commercially available Zensor TE100 (EDAQ ET077) screenprinted electrodes featuring carbon working and counter electrodes. Although the Zensor TE100 electrodes include a silver paste reference, a separate 1 M KCl Ag/AgCl reference electrode (CHI111) was employed to minimize the chances of drift in reference potential during measurements lasting several hours, which can occur when the reference electrode is in direct contact with the sample solution. All electrochemical measurements were recorded using a potentiostat (CHI842C, CH Instruments).
Individual amino acids were dissolved at specific concentrations in either 10 mL of TSB or M63 media. Each solution was inoculated with a specific concentration of P. aeruginosa and incubated at 37 C. […] of each solution was removed at designated time points and loaded onto a Zensor electrode for electrochemical testing. Square-wave voltammetric scans were performed at potentials ranging from −0.4 to −0.1 V at an amplitude voltage of 0.050 V and a frequency of 15 Hz. Scans were performed for each sample three times with three replicates for each tested condition. The data was analyzed using OriginPro 9.1 (OriginLab Corporation). Baselines were created for each data set using spline interpolation with 8 base points. The resulting baseline-subtracted data set was used to determine the max currents observed from pyocyanin production.
Liquid cultures of P. aeruginosa were grown in either M63 minimal media or TSB to observe the effect of amino acid addition on the bacteria's production of pyocyanin using the methods described in Example 2. 10 μL of stock PA14 culture was loaded into 10 mL liquid cultures each containing one of six different amino acids (final concentration of 4 million cells per mL). […] Electrochemical scans were taken roughly every two hours over the course of a 24-hour period.
Tyrosine and valine were prepared at concentrations ranging from those quantified in typical cystic fibrosis infection levels (tyrosine: 0.2 mM, valine: 1.1 mM) to an 80-fold increase, which reached the solubility limit of the amino acids in TSB. The initial concentration of P. aeruginosa loaded in each sample was kept constant at roughly 4 million cells per mL and electrochemical scans were taken every two hours over the course of ten hours. FIGS. 11 A and B show scans taken after eight hours of growth in addition to a control with no amino acid additives. Again, consistent among all scans was the observance of a pyocyanin peak around −0.25 V vs. a Ag/AgCl reference. […] It is possible that valine has an inhibitory effect on pyocyanin production at such high concentrations. While such inhibition has been observed for other molecules (D. J. Musk, D. A. Banko and P. J. Hergenrother, Chem. Biol., 2005, 12, 789-796), P. aeruginosa has not been previously studied at valine concentrations that are over 100 times greater than what is typically found in a pseudomonal infection.
The next set of tests studied how varying the initial P. aeruginosa cell concentration would affect the production of pyocyanin in the presence of amino acids. TSB media was used as the growth media to which tyrosine and valine were added. Tyrosine (16 mM) and valine (17.6 mM) concentrations were held constant while varying amounts of P. aeruginosa were added into the samples (4, 20, 40, 400 million cells per mL). […]

`N=C(N)NCCC[C@H](N)C(=O)O` [arginine]: the “effect on biofilm formation” value in the test with P. aeruginosa cultures is “up-regulate biofilm formation”.

Take `N[C@@H](Cc1c[nH]cn1)C(=O)O` [histidine]: in the test on P. aeruginosa cultures, the “effect on biofilm formation” value is given as “up-regulate biofilm formation”. Also, the “time to appearance of a pyocyanin signal” value in test [1] was “significantly less time”.

Turning to `CC(C)C[C@H](N)C(=O)O` [leucine], the “effect on biofilm formation” value in the test on P. aeruginosa cultures is recorded as “up-regulate biofilm formation”.

For `O=C(O)[C@@H]1CCCN1` [proline], the “effect on biofilm formation” value in the test with P. aeruginosa cultures is recorded as “up-regulate biofilm formation”.

On to `N[C@@H](Cc1ccc(O)cc1)C(=O)O` [tyrosine], for which, in the test with P. aeruginosa cultures, the “effect on biofilm formation” value was “up-regulate biofilm formation”. Also, the “effect on pyocyanin production” value in test [1] (4 million cells per mL) is listed as “up-regulatory effect”. Further, in test [1], the “time to appearance of a pyocyanin signal” value was “significantly less time” and the “up-regulatory effect on pyocyanin production compared with the other amino acids tested” value is on record as “greatest up-regulatory effect in both media”. The “time of statistically significant increase in current output” value in test [1] (TSB, 16 mM tyrosine, 400 million cells per mL, FIG. 14 A) is “between four and six hours”. In test [1] (TSB, 4 million cells per mL), the “effect of varying amino acid concentration on amounts of pyocyanin produced after the critical time point” value is “significant effect”; the “effect of varying amino acid concentration on time needed for cells to up-regulate pyocyanin production” value is listed as “minimal effect”; the “rate of pyocyanin production, 16 mM tyrosine compared with 17.6 mM valine” value is “nearly identical”. Moreover, in test [1] (TSB, 4 million cells per mL, FIG. 12 A), the “time of statistically significant increase in current output” value is “between six and eight hours”. Besides, in test [1] (TSB, initial cell concentrations above 4 million cells per mL), the “pyocyanin produced, 16 mM tyrosine versus 17.6 mM valine” value was “more pyocyanin than 17.6 mM valine”. Besides, the “up-regulatory effect on pyocyanin production compared with the other amino acids tested” value in test [1] (listed as Tyrosine) is on record as “largest up-regulatory effect of the six amino acids tested”.

`CC(C)[C@H](N)C(=O)O` [valine]: the “effect on biofilm formation” value in the test with P. aeruginosa cultures is recorded as “up-regulate biofilm formation”. Also, the “effect on pyocyanin production” value in test [1] (4 million cells per mL) was “up-regulatory effect”. For the same molecule, in test [1] (TSB, 88 mM versus 17.6 mM valine), the “pyocyanin production when concentration raised to 88 mM” value is on record as “decreased”. Moreover, in test [1] (TSB, 4 million cells per mL), the “effect of varying amino acid concentration on amounts of pyocyanin produced after the critical time point” value is given as “significant effect”; the “effect of varying amino acid concentration on time needed for cells to up-regulate pyocyanin production” value was “minimal effect”; the “rate of pyocyanin production, 16 mM tyrosine compared with 17.6 mM valine” value was “nearly identical”. The “amino acid concentration giving the largest pyocyanin concentration” value in test [1] (TSB, 4 million cells per mL, eight hours of growth) worked out at 17.6 mM. For the same molecule, the “up-regulatory effect on pyocyanin production compared with the other amino acids tested” value in test [1] is on record as “largest up-regulatory effect of the six amino acids tested”.

These data come from patent US20160202206A1, “Matrix-Enhanced Electrochemical Detector for Pathogenic Bacteria” (NORTHEASTERN UNIVERSITY, priority 2013, published 2016).
